Test results: patent publication US20050239756A1, “Methods of treating various vitamin D metabolism conditions with 1alpha-hydroxyvitamin D2” (Bone Care International, Inc., priority 2004, published 2005)
“And” between values parts separate entries of the source, which are not always exact repeats. Identical values can stand only once.

How the values were obtained:
PTH levels = conditions: Malluche et al., Nephrol. Dial. Transplant., 2004; cited from earlier work
[1] = tested on: subjects with chronic kidney disease with elevated blood PTH; experiment: 24-week double-blinded placebo-controlled study of oral doxercalciferol in secondary hyperparathyroidism with mild to moderate chronic kidney disease (Example 2); type: in vivo, human; conditions: for Mean (±SE) plasma iPTH: baseline 219.1±22.3 pg/mL
Excerpt: 1α-(OH)D2 (doxercalciferol) was used as a treatment for hyperparathyroidism associated with chronic kidney disease was confirmed in a study involving 55 adults, ages 18-85 years, with mild to moderate chronic kidney disease. The subjects had plasma intact parathyroid hormone (iPTH) levels above 85 pg/mL and completed an eight-week baseline period and then 24 weeks of therapy with either orally administered doxercalciferol or placebo. The initial dose of test drug was 2 capsules daily (totaling 1.0 μg for subjects randomized to doxercalciferol treatment), with increases in steps of one capsule per day permitted after four weeks. The maximum dosage was limited to 10 capsules per day (5.0 μg/day of doxercalciferol). Subjects were monitored at regular intervals for plasma iPTH, serum calcium and phosphorus, 24-hour and fasting urinary calcium, bone-specific serum markers, plasma total 1α,25-(OH)2D, and routine blood chemistries and hematologies. Glomerular filtration rate (GFR) was measured prior to beginning the treatment and at study termination. No physical or biochemical differences were detectable between the two treatment groups prior to starting treatment. […] On enrollment, each subject was assigned, at random, in double-blinded fashion, to one of two treatment groups. Both treatment groups completed an 8-week Baseline Period (Weeks −8 to 0) and then underwent therapy with either orally administered doxercalciferol or placebo for a 24-week Treatment Period (Weeks 1 to 24). Irrespective of treatment group assignment, each subject discontinued any 1α,25-dihydroxivitamin D3 (1α,25(OH)2D3) therapy for the duration of the study. Throughout the Baseline Period and the subsequent Treatment Period, subjects were monitored at regular intervals for plasma iPTH, serum calcium, serum phosphorus, and 24-hour and fasting urinary calcium, phosphorus and creatinine. Routine blood chemistries and hematologies, bone-specific serum markers, and plasma total 1α,25(OH)2D were also monitored at selected intervals. Glomerular filtration rate (GFR) was measured prior to beginning treatment and at termination. Subjects qualified for inclusion in the Baseline Period if they were aged 18 to 85 years, had mild to moderate CR1 with serum creatinine between 1.8 to 5.0 mgldL (for men) or 1.6 to 4.0 mg/dL (for women), and had elevated plasma iPTH values (>85 pg/mL). Subjects receiving ongoing treatment with estrogen were required to maintain the same estrogen dosing regimen throughout the study. Subjects who began dialysis treatment or underwent renal transplantation were required to prematurely terminate participation. […] Patients were also excluded who had hypercalcemia, hyperthyroidism, sarcoidosis, malignancy requiring chemotherapy, hormonal therapy and/or radiation treatment, chronic gastrointestinal disease (i.e., malabsorption, surgery affecting absorption, and chronic ulcerative colitis), hepatic impairment, or any other condition which may have put the patient at undue risk. […] The two studies were conducted under double-blind conditions in each geographical region. Assignments of subjects to the two treatment groups were made randomly, by geographical region, in order of enrollment. The randomization was accomplished in subgroups of size 10, 5 subjects assigned to each of the two treatment groups. The randomization was performed by an independent statistician using the Statistical Analysis System (SAS). 1α-hydroxyvitamin D2 (available as doxercalciferol from Bone Care International) was formulated for oral administration as soft elastic gelatin capsules in units of 0.5 mcg/capsule. […] The initial dose of test drug (doxercalciferol or placebo) was 2 capsules (totaling a 1.0 μg dose for subjects receiving doxercalciferol) every day before breakfast. This dosage was increased as necessary at monthly intervals, to suppress plasma iPTH levels by at least 30% from baseline. […]

[2] = tested on: subjects with low serum calcium; experiment: 24-week oral doxercalciferol therapy in subjects with low serum calcium (Example 3); type: in vivo, human
Description: 1α-(OH)D2 (doxercalciferol) is used as a treatment for subjects with low serum calcium in a study involving 50 adults, ages 18-85 years. The subjects have serum calcium levels below 8.6 mg/dL and complete an eight-week baseline period and then 24 weeks of therapy with orally administered doxercalciferol. The initial dose of 1α-(OH)D2 is 2 capsules daily (totaling 1.0 μg), with increases in steps of one capsule per day permitted after four weeks. The maximum dosage is limited to 10 capsules per day (5.0 μg/day of doxercalciferol). Subjects are monitored at regular intervals for plasma iPTH, serum calcium and phosphorus, 24-hour and fasting urinary calcium, bone-specific serum markers, plasma total 1α,25-(OH)2D, and routine blood chemistries and hematologies.

[3] = tested on: postmenopausal osteoporotic outpatients; experiment: 104-week placebo-controlled study of oral 1α-(OH)D2 in postmenopausal osteoporotic outpatients (Example 1); type: in vivo, human
Excerpt: 1α-(OH)D2 was used to treat osteoporosis was confirmed in a study involving 60 postmenopausal osteoporotic outpatients. […] Exclusion criteria encompassed significant medical disorders and recent use of medications known to affect bone or calcium metabolism. On admission to the study, each subject was assigned at random to one of two treatment groups; one group received up to a 104-week course of therapy with 1α-(OH)D2; the other received only placebo therapy. All subjects received instruction on selecting a daily diet containing 700-900 mg of calcium and were advised to adhere to this diet over the course of the study. Compliance to the diet was verified at regular intervals by 24-hour food records and by interviews with each subject. During the treatment period, subjects from one group orally self-administered 1α-(OH)D2 at an initial dosage of 1.0 μg/day for one week, and increased the dosage to 2.0, 3.0, 4.0 μg/day in each of the following weeks, to a maximum dosage of 5.0 μg/day. The dosage for any given subject was increased in this way until the rate of urinary calcium excretion was elevated to approximately 275-300 mg/24 hours, at which point the subject held the dosage constant at the highest level attained. Subjects from the second group self-administered a matching placebo medication every day, titrating the apparent dosage upwards in the same manner as subjects being treated with 1α-(OH)D2. Spinal and femoral neck BMD were measured in all subjects by DEXA at the beginning of the study, and at six-month intervals thereafter. Intestinal calcium absorption was estimated in all subjects by a single isotope technique at the beginning of the study, and at 12-month intervals. Serum levels of vitamin D metabolites were determined by radioreceptor binding assays at baseline and at six-month intervals. Serum osteocalcin, serum PTH and urine hydroxyproline also were determined at baseline and at six-month intervals. Other blood and urine chemistries were monitored at regular intervals during the treatment period. These chemistries included serum calcium, serum ionized calcium, urine calcium, blood urea nitrogen, serum creatinine and creatinine clearance. Kidney-ureter-bladder (KUB) x-rays were obtained at baseline and at 12-month intervals thereafter.

[4] = tested on: subjects with low serum 1,25-dihydroxyvitamin D; experiment: 24-week oral doxercalciferol therapy in subjects with low serum 1,25-dihydroxyvitamin D (Example 4); type: in vivo, human
Description: 1α-(OH)D2 (doxercalciferol) is used as a treatment for subjects with low serum 1,25-dihydroxyvitamin D in a study involving 50 adults, ages 18-85 years. The subjects have serum 1,25-dihydroxyvitamin D levels below […] and complete an eight-week baseline period and then 24 weeks of therapy with orally administered doxercalciferol. The initial dose of 1α-(OH)D2 is 2 capsules daily (totaling 1.0 μg), with increases in steps of one capsule per day permitted after four weeks. The maximum dosage is limited to 10 capsules per day (5.0 μg/day of doxercalciferol). Subjects are monitored at regular intervals for plasma iPTH, serum calcium and phosphorus, 24-hour and fasting urinary calcium, bone-specific serum markers, plasma total 1α,25-(OH)2D, and routine blood chemistries and hematologies.

[5] = Treatment Period, active treatment
[6] = after the 24 week treatment period

In the case of `C=C1/C(=C\C=C2/CCC[C@]3(C)[C@@H]([C@H](C)CCCC(C)(C)O)CC[C@@H]23)C[C@@H](O)C[C@@H]1O` [calcitriol, 1,25-dihydroxyvitamin D3], the “Effect of treatment on PTH levels” value (PTH levels) is listed as “over suppression of PTH levels”.

With `C=C1/C(=C\C=C2/CCC[C@]3(C)[C@@H]([C@H](C)/C=C/[C@H](C)C(C)C)CC[C@@H]23)C[C@@H](O)C[C@@H]1O` [1α-(OH)D2, 1α-hydroxyvitamin D2] the “Renal function and rates of adverse events vs placebo” value ([1]; 24 weeks) was “No differences between treatment groups”, the “Subjects achieving plasma iPTH suppression of ≧30% from baseline (percentage)” value ([1]; 27 subjects in the active group, mean of Weeks 20 and 24, placebo 7.1%) was 74% and the “Episodes of hypercalciuria (24-hour urine calcium >200 mg or fasting urine Ca/Cr ratio above 0.25)” value ([1]; Treatment Period) was “No episodes”. The “Episodes of hyperphosphatemia (serum phosphorus >5.0 mg/dL)” value [1, 5] was 15 episodes, the “Subjects with hyperphosphatemia (serum phosphorus >5.0 mg/dL)” value [1, 5] was 10 subjects and the “Mean serum osteocalcin, upward trend from baseline” value ([1]; Week 4) was ~10%. The “Mean (±SE) plasma iPTH” value ([1]; Week 4) was 165 ± 15 pg/mL, the “Mean reduction of plasma iPTH from baseline” value ([1]; Week 8) was 26.3% and the “Mean serum osteocalcin, decline from baseline” value ([1]; Week 24) was “about 20%”. The “Mean (±SE) serum phosphorus” value ([1]; Week 24, baseline 4.02±0.15 mg/dL) was 4.27 ± 0.13 mg/dL, the “Mean (±SE) serum calcium” value ([1]; Week 24, baseline 8.74±0.12 mg/dL) was 9.14 ± 0.11 mg/dL and the “Mean (±SE) plasma iPTH” value ([1]; Week 24, p<0.001 vs. baseline) was 118 ± 17 pg/mL. The “Mean reduction (suppression) of plasma iPTH from baseline” value ([1]; Week 24, p<0.001) was 45.6%, the Mean alkaline phosphatase ([1]; Weeks 16 and 24, p<0.05) was “reduced significantly from baseline” and the “Mean serum total 1,25-dihydroxyvitamin D levels” value ([1]; all treatment weeks, did not differ significantly between groups) was “increased significantly from baseline”. For the same molecule, the “Mean reduction in serum bone-specific alkaline phosphatase (BSAP) from baseline” value ([1]; by Week 16) was 19.7±3.7%, the “Mean reduction in serum bone-specific alkaline phosphatase (BSAP) from baseline” value ([1]; by Week 24) was 27.9±4.6% and the “Rise in mean serum 1,25-dihydroxyvitamin D from baseline levels” value ([1]; during treatment, no change in placebo group) was ~50%. The “iPTH increase in an individual subject” value ([1]; end of treatment, one subject) was 3.9%, the “iPTH reduction in individual subjects not reaching ≧30% suppression” value ([1]; end of treatment, single subjects, listed as doxercalciferol) was 24.0% and 24.2% and 19.6% and the “Duration of hypercalcemia episode” value ([1]; episode with onset in Week 4) was 5 weeks. For the same molecule, the “Maximum serum calcium recorded during hypercalcemia episode” value ([1]; episode with onset in Week 4, one subject) was 10.9 mg/dL, the “Duration of hypercalcemia episode” value ([1]; episode with onset in Week 16) was 8 weeks and the “Maximum serum calcium recorded during hypercalcemia episode” value ([1]; episode with onset in Week 16, one subject) was 11.0 mg/dL. For the same molecule, the “Episodes of hypercalcemia (corrected serum calcium >10.7 mg/dL)” value ([1]; in one subject, onsets Week 4 and Week 16) was “Two”, the “Subjects achieving plasma iPTH suppression of ≧30% from baseline (number)” value ([1]; of 27 subjects in the active group, mean of Weeks 20 and 24) was 20 subjects and the “Serum calcium in the excepted subject during treatment” value ([1]; one subject with pre-treatment serum calcium as high as 10.7 mg/dL) was 11.0 mg/dL. For the same molecule, the “iPTH increase in a subject at discontinuation” value ([1]; one subject, discontinued in Week 5) was 22.8%, the “Plasma iPTH suppression from baseline in a subject at discontinuation” value ([1]; one subject, discontinued in Week 8) was 27.9% and the “Plasma iPTH suppression in a subject at discontinuation” value ([1]; one subject, discontinued in Week 17) was 44.4%. The “Serum C- and N-telopeptides and bone-specific alkaline phosphate” value ([1]; relative to baseline and placebo treatment, p<0.01) was “decreased”, the “Average serum phosphorous levels” value [2, 6] was 2.4 to 5 mg/dL and the “Serum bone-specific markers alkaline phosphatase, N- and C-telopeptides, and osteocalcin” value [2, 6] was “average normal levels”. The “Serum 1,25-dihydroxyvitamin D levels between doses” value ([2]; between doses of 1α-(OH)D2) was “within the patients normal historical physiological range”, the “Increase in intestinal absorption of orally administered Ca relative to placebo control” value ([3]; after 52 weeks, P<0.001) was 40% and the “Increase in intestinal absorption of orally administered Ca relative to placebo control” value ([3]; after 104 weeks, P<0.5) was 29%. The “Decrease in serum levels of PTH relative to placebo therapy” value ([3]; at 1-4 weeks (so in the source)) was 25%, the “Increase in mean serum total 1α,25-(OH)2D3 relative to placebo therapy” value ([3]; at 24 months, P<0.01) was 49% and the “Decrease in serum levels of PTH relative to placebo therapy” value ([3]; at 52 weeks) was 17%. For the same molecule, the “Increase in mean serum total 1α,25-(OH)2D3 relative to placebo therapy” value ([3]; at six months, P<0.05) was 21%, the “Mean urine calcium during initial titration period” value ([3]; dosage titrated 1.0 to 5.0 μg/day) was “increased during the initial titration period in a dose-response fashion” and the “Serum 1α,25-(OH)2D2” value ([3]; during treatment) was “dramatic rise”. For the same molecule, the “Mild hypercalcemia (10.2-10.4 mg/dL), subjects affected” value ([3]; first year) was “four”, the “Moderate hypercalcemia (10.4-10.8 mg/dL), subjects affected” value ([3]; over the course of the study, prescribed dosages 5.0 μg/day) was “two” and the “Hypercalciuria observed occasionally, subjects affected” value ([3]; over the two-year study) was 17 subjects. The “Marked hypercalcemia (>10.8 mg/dL), subjects affected” value ([3]; prescribed dosage 5.0 μg/day, in association with an intercurrent illness) was “one”, the “Mild hypercalcemia (10.2-10.4 mg/dL), subjects affected” value ([3]; second year) was “two” and the “Bone mineral density (BMD) in the L2-L4 vertebrae” value ([3]; two-year study, decreased with placebo, difference P<0.05 after 24 months) was “progressively increased”. For the same molecule, the “Average serum phosphorous levels” value [4, 6] was 2.4 to 5 mg/dL, the “Serum bone-specific markers alkaline phosphatase, N- and C-telopeptides, and osteocalcin” value [4, 6] was “average normal levels” and the “Serum 1,25-dihydroxyvitamin D levels between doses” value ([4]; between doses of 1α-(OH)D2) was “within the patients normal historical physiological range”.
